# Data as given in ChEMBL document CHEMBL5579788 (Bioorg Med Chem Lett, 2024).
# Experiments:
# [1] = target: Replicase polyprotein 1ab (Severe acute respiratory syndrome coronavirus 2) (UniProt P0DTD1); test: Inhibition of SARS CoV-2 main protease at 10 uM relative to control
# [2] = target: Replicase polyprotein 1ab (Severe acute respiratory syndrome coronavirus 2, UniProt P0DTD1); test: (§1) Inhibition of SARS CoV-2 main protease
# [3] = Cytotoxicity against HEK293-A cells assessed as reduction in cell viability by CCK-8 assay; type: toxicity, cell-based; details: human
# [4] = tested on: SARS-CoV-2; test: Antiviral activity against SARS-CoV-2; type: functional, organism-based; details: Severe acute respiratory syndrome coronavirus 2
# [5] = tested on: SARS-CoV-2; test: Antiviral activity against wild type SARS-CoV-2 infected in Vero E6 cells assessed as inhibition of viral induced cytopathic effect incubated for 72 hrs by MTT assay; type: functional, organism-based; details: Severe acute respiratory syndrome coronavirus 2, Vero C1008, 72 h
# [6] = target: Replicase polyprotein 1ab (Severe acute respiratory syndrome coronavirus 2) (UniProt P0DTD1); test: as §1
# [7] = target: Replicase polyprotein 1ab (Severe acute respiratory syndrome coronavirus 2) (UniProt P0DTD1); test: Inhibition of SARS CoV-2 main protease at 50 uM relative to control
SMILES,inhibition [1] [%],IC50 [2] [µM],other results
COc1ccccc1N1C(=O)C[n+]2ccccc2C1C(=O)Nc1c(C)cccc1C (centres undefined),< 20,–,–
O=C(Nc1ccccc1)C1c2cccc[n+]2CC(=O)N1c1ccc(Br)cc1 (centres undefined),71.3,8.6,–
CCOc1ccc(NC(=O)C2c3cccc[n+]3CC(=O)N2c2ccc(OCC)cc2)cc1 (centres undefined),21.7,–,–
Cc1cccc(C)c1NC(=O)C1c2cccc[n+]2CC(=O)N1c1ccc(Cl)cc1 (centres undefined),50.1,–,–
C=CCN1C(=O)C[n+]2ccccc2C1C(=O)Nc1c(C)cccc1C (centres undefined),< 20,–,–
Cc1ccccc1N1C(=O)C[n+]2ccccc2C1C(=O)Nc1ccccc1 (centres undefined),78.7,5.6,–
Cc1ccc(N2C(=O)C[n+]3ccccc3C2C(=O)Nc2ccccc2C)cc1 (centres undefined),83,6.1,–
Cc1ccc(N2C(=O)C[n+]3ccccc3C2C(=O)Nc2ccc(Cl)cc2)cc1Br (centres undefined),78.2,4.5,CC50 [3]: > 300 µM
Cc1cccc(C)c1NC(=O)C1(C)c2cccc[n+]2CC(=O)N1c1ccc(Cl)cc1 (centres undefined),32.1,–,–
Cc1ccccc1NC(=O)C1c2cccc[n+]2CC(=O)N1C (centres undefined),75.3,4,CC50 [3]: > 300 µM
Cc1ccc(N2C(=O)C[n+]3ccccc3C2C(=O)Nc2c(C)cccc2C)cc1Cl (centres undefined),< 20,–,–
Cc1ccc(N2C(=O)C[n+]3ccccc3C2(C)C(=O)Nc2ccc(Cl)cc2)cc1 (centres undefined),< 20,–,–
Cc1cccc(C)c1NC(=O)C1c2cccc[n+]2CC(=O)N1c1cccc(Cl)c1 (centres undefined),31,–,–
Cc1ccccc1NC(=O)C1c2cccc[n+]2CC(=O)N1c1c(C)cccc1C (centres undefined),< 20,–,–
Cc1cccc(C)c1NC(=O)C1c2cccc[n+]2CC(=O)N1Cc1ccc2c(c1)OCO2 (centres undefined),< 20,–,–
O=C(Nc1ccccc1)C1c2cccc[n+]2CC(=O)N1c1ccccc1 (centres undefined),84.3,5.2,–
Cc1cc(C)cc(N2C(=O)C[n+]3ccccc3C2C(=O)Nc2ccccc2C)c1 (centres undefined),66.6,–,–
O=C(Nc1ccc(Cl)cc1)C1c2cccc[n+]2CC(=O)N1Cc1ccc2c(c1)OCO2 (centres undefined),72.5,6.9,CC50 [3]: > 300 µM
CCc1cccc(C)c1N1C(=O)C[n+]2ccccc2C1C(=O)Nc1ccccc1C (centres undefined),< 20,–,–
CCCN1C(=O)C[n+]2ccccc2C1C(=O)Nc1c(C)cccc1C (centres undefined),< 20,–,–
O=C[C@H](C[C@@H]1CCNC1=O)NC(=O)[C@H](Cc1cccc(F)c1)NC(=O)c1cc2ccccc2[nH]1,–,–,EC50 [4]: 720 nM

SMILES,inhibition [1] [%],IC50 [2] [µM],other results
O=C(Nc1ccc(Cl)cc1)C1c2cccc[n+]2CC(=O)N1c1ccc(Br)cc1 (centres undefined),82.2,8.5,–
O=C(NC1CCCC1)C(=O)[C@H](CC1CCNC1=O)NC(=O)[C@@H]1[C@H]2CCC[C@H]2CN1C(=O)[C@@H](NC(=O)C(F)(F)F)C1CCCCC1 (some centres undefined),–,–,EC50 [5]: 95 nM
CN1C(=O)C[n+]2ccccc2C1C(=O)Nc1ccccc1 (centres undefined),93.3,8.9,–
CC(C)(C)C(=O)N[C@H](C(=O)N1CC2(C[C@H]1C(=O)N[C@H](C#N)C[C@@H]1CCNC1=O)SCCS2)C(C)(C)C,–,0.022,EC50 [4]: 570 nM
CCOc1ccc(NC(=O)C2c3cccc[n+]3CC(=O)N2c2ccc(OC)cc2)cc1 (centres undefined),30,–,–
Cc1cccc(C)c1NC(=O)C1c2cccc[n+]2CC(=O)N1C (centres undefined),85.8,8.3,–
O=C1C2C3C=CC(CO)(O3)C2C(=O)N1c1cc(C(F)(F)F)ccc1Cl (centres undefined),–,4.4,inhibition [6]: Dose-Dependent Effect; inhibition [7]: > 50%
Cc1cc(C)cc(N2C(=O)C[n+]3ccccc3C2C(=O)Nc2ccc(Cl)cc2)c1 (centres undefined),75.7,8.8,–
Cc1cccc(N2C(=O)C[n+]3ccccc3C2C(=O)Nc2ccccc2)c1 (centres undefined),80.5,6.1,inhibition [6]: Dose-Dependent Effect; inhibition [7]: > 50%
Cc1cccc(C)c1NC(=O)C1c2cccc[n+]2CC(=O)N1c1cccc(C(F)(F)F)c1 (centres undefined),< 20,–,–
O=C(Nc1ccc(Cl)cc1)C1c2cccc[n+]2CC(=O)N1c1cccc(Cl)c1 (centres undefined),84.5,5.1,–
CC1(C(=O)Nc2ccc(Cl)cc2)c2cccc[n+]2CC(=O)N1c1ccc(Cl)cc1 (centres undefined),< 20,–,–
COc1ccc(N2C(=O)C[n+]3ccccc3C2C(=O)Nc2ccc(Cl)cc2)cc1 (centres undefined),57.7,–,–
Cc1cccc(C)c1NC(=O)C1c2cccc[n+]2CC(=O)N1CCO (centres undefined),< 20,–,–
COc1ccc(NC(=O)C2c3cccc[n+]3CC(=O)N2c2ccccc2O)cc1 (centres undefined),26.5,–,–
Cc1cccc(C)c1NC(=O)C1c2cccc[n+]2CC(=O)N1c1ccc2c(c1)OCO2 (centres undefined),< 20,–,–
O=C(Nc1ccc(Cl)cc1)C1c2cccc[n+]2CC(=O)N1c1ccc(Cl)cc1 (centres undefined),75.7,9.6,–
CCOc1ccc(N2C(=O)C[n+]3ccccc3C2C(=O)Nc2ccc(Cl)cc2)cc1 (centres undefined),47.2,–,–
CCN1C(=O)C[n+]2ccccc2C1C(=O)Nc1c(C)cccc1C (centres undefined),< 20,–,–
CCOc1ccc(NC(=O)C2c3cccc[n+]3CC(=O)N2c2ccccc2)cc1 (centres undefined),80.4,5,–
